Source: patent US20230357162A1, “COMPOUNDS, COMPOSITIONS AND METHODS” (Denali Therapeutics Inc., priority 2020, published 2023)
Structures can show the parent of a compound that is named as a salt.

Test system: IL-1β secretion, THP-1 cells
Experiment: IL-1β secretion assay in PMA-differentiated THP-1 cells stimulated with LPS and nigericin (ELISA readout)
Type: cell-based
Conditions: Homo sapiens, THP-1, inhibition of IL-1β secretion, 25 ng/mL LPS then nigericin
Experimental: Compounds as provided herein were tested in the following assay. Cell culture medium employed contained RPMI 1640 medium (89%), FBS (10%), Pen/Strep (1%), and 2-mercaptoethanol (0.05 mM). Freezing medium was made up of 90% FBS and 10% DMSO. THP-1 cells were removed from the liquid nitrogen and placed into a 37° C. water bath to thaw, until signs of ice dissipated. The cells were then added to 9 mL of warm cell culture medium and centrifuged for 5 minutes at 1000 rpm. The supernatant was discarded, and the cells were resuspended in new cell culture medium. THP-1 cells were then split and cultured in the cell culture medium, being passaged every 2-3 days with the cell density will be maintained between 5×10^5 and 1.5×10^6 viable cells/mL.
PMA was dissolved in DMSO to make a stock solution at 5 mg/ml and stored in 10 µl aliquots at -20° C. for single use. PMA is added to normal growth medium. LPS was diluted with 1 mL of water solution to provide a 1 mg/mL stock solution and stored in 15 µl aliquots at -20° C. for single use. Nigericin is diluted in ice cold 100% ethanol to 5 mg/ml (6.7 mM) and stored in 75 µL aliquots at -20° C. for single use. Serum-free media contains RPMI 1640 medium (99%), Pen/Strep (1%), and 2-mercaptoethanol (0.05 mM). The two control conditions used to qualify and normalize test compound dose-response curves were as follows: High Control = 25 ng/mL LPS, 5 µM Nigericin, 0.5% DMSO, Low Control = 25 ng/mL, LPS, 0.5% DMSO.
THP-1 cells were diluted to provide a suspension at a concentration of 1.0×10^6 cells/mL with the total volume of suspension required to enable the desired number of assay plates. The growth media was supplemented with PMA (5 ng/mL final concentration) and the cells were incubated at 37° C. under a humidified atmosphere of 5% CO2 for 40 h.
All media was carefully aspirated from each culture flask. The cells were washed carefully with 1x DPBS. The cells were then briefly digested with trypsin LE for 5 minutes at 23° C. and immediately resuspended in cell growth media. After resuspension, the cells were centrifuged at 1000 rpm for 3 minutes and the supernatant was discarded. The cells were resuspended in DPBS and once again centrifuged at 1000 rpm for 5 minutes. The supernatant was discarded and the cell pellet was resuspended in serum-free media supplemented with LPS (25 ng/mL final concentration) to enable the distribution of 30 K THP-1 cells within 45 µL of media into each well of 384-well PDL-coated plates. The 384-well plates were then incubated at 37° C. under a humidified atmosphere of 5% CO2 for 2 h. Following this period, test compounds were dispensed by Tecan across the desired concentration range with all wells normalized to a final 0.5 % DMSO concentration. The plates were then then incubated at 37° C. under a humidified atmosphere of 5% CO2 for 1 h. Following this period, 5 µL of the […] nigericin stock solution was added to each of the appropriate wells and plates were centrifuged at 1000 rpm for 30 seconds. The plates were the immediately reintroduced to the incubator at 37° C. under a humidified atmosphere of 5% CO2 for 2 h. After this time, 35 µL/well of supernatant was collected and transferred into v-bottom plate and centrifuged at 1000 rpm for 1 minute. These supernatant aliquots were analyzed using an IL-Iβ detection kit as described below. If needed, the test samples could be snap frozen and stored at -80° C. until analyzed.
To prepare each ELISA plate, capture antibody (mAb Mt175) was diluted with PBS to a final concentration of 2 µg/mL and then 20 µL of this solution was added to each well of the ELISA plate. Each plate was allowed to incubate overnight at 4° C. The next day, the capture antibody solution was removed and discarded. Each ELISA plate was washed 4 times with PBST followed by the addition of 25 µL/well of blocking buffer (Licor-927-40010) supplemented with 0.1% Tween 20. Each ELISA plate was then allowed to incubate for 1 hour at 23° C. […]

Row | SMILES | IC50 (class column of Table 3) [µM] | IC50 (numeric column of Table 3) [µM]
1 | CC(C)c1nn(CC(=O)Nc2cnc(Cl)c(F)c2)c(=O)c2ccc(Br)cc12 [Example 112, 2-(6-bromo-1-oxo-4-propan-2-ylphthalazin-2-yl)-N-(6-chloro-5-fluoropyridin-3-yl)acetamide] | < 10 | 1.12
2 | CC(C)c1nn(CC(=O)Nc2ncncc2F)c(=O)c2ccc(I)cc12 [Example 20, N-(5-fluoropyrimidin-4-yl)-2-(6-iodo-1-oxo-4-propan-2-ylphthalazin-2-yl)acetamide] | < 10 | 0.018
3 | CC(C)c1nn(CC(=O)NC2CCc3nncn3C2)c(=O)c2ccc(Br)cc12 (centres unmarked) [Example 47, 2-(6-bromo-1-oxo-4-propan-2-ylphthalazin-2-yl)-N-(5,6,7,8-tetrahydro-[1,2,4]triazolo[4,3-a]pyridin-6-yl)acetamide] | < 10 | 2.55
4 | N#Cc1cnc(NC(=O)Cn2nc(C(F)F)c3c(F)c(Br)ccc3c2=O)nc1 [Example 133] | < 10 | 0.109
5 | CCN1CCOCC(NC(=O)Cn2nc(C(C)C)c3cc(Br)ccc3c2=O)C1 (centres unmarked) [Example 159, 2-(6-bromo-1-oxo-4-propan-2-ylphthalazin-2-yl)-N-(4-ethyl-1,4-oxazepan-6-yl)acetamide] | < 10 | 4.76
6 | COc1nn(CC(=O)Nc2ncc(F)cn2)c(=O)c2ccc(C(F)(F)F)cc12 [Example 146, N-(5-fluoropyrimidin-2-yl)-2-[4-methoxy-1-oxo-6-(trifluoromethyl)phthalazin-2-yl]acetamide] | < 10 | 0.461
7 | N#Cc1cnc(NC(=O)Cn2nc(C(F)F)c3cc(Br)ccc3c2=O)nc1 [Example 136] | < 10 | 0.181
8 | CC(C)c1nn(CC(=O)NCC2CCCO2)c(=O)c2ccc(Br)cc12 (centres unmarked) [Example 130, 2-(6-bromo-1-oxo-4-propan-2-ylphthalazin-2-yl)-N-(oxolan-2-ylmethyl)acetamide] | < 10 | 2.92
9 | Cc1nn(CC(=O)Nc2ncc(F)cn2)c(=O)c2ccc(Br)c(F)c12 [Example 145] | < 10 | 0.174
10 | CC(C)c1nn(CC(=O)NCC2CCCOC2)c(=O)c2ccc(Br)cc12 (centres unmarked) [Example 57, 2-(6-bromo-1-oxo-4-propan-2-ylphthalazin-2-yl)-N-(oxan-3-ylmethyl)acetamide] | < 10 | 4.4
11 | CC1(C)CC(Oc2nn(CC(=O)Nc3ncc(F)cn3)c(=O)c3ccc(Br)cc23)C1 [Example 156, 2-[6-bromo-4-(3,3-dimethylcyclobutoxy)-1-oxo-phthalazin-2-yl]-N-(5-fluoropyrimidin-2-yl)acetamide] | < 10 | 0.07
12 | CC(C)c1nn(CC(=O)Nc2ncncc2F)c(=O)c2ccc(Br)cc12 [Example 6, 2-(6-Bromo-4-isopropyl-1-oxophthalazin-2(1H)-yl)-N-(5-fluoropyrimidin-4-yl)acetamide] | < 10 | 0.121
13 | CCN1CCCC(NC(=O)Cn2nc(C(F)F)c3c(F)c(Br)ccc3c2=O)C1 (centres unmarked) [Example 183, 2-[6-bromo-4-(difluoromethyl)-5-fluoro-1-oxophthalazin-2-yl]-N-(1-ethylpiperidin-3-yl)acetamide] | < 10 | 0.485
14 | O=C(Cn1nc(OC(F)(F)F)c2ccc(Br)cc2c1=O)Nc1ncncc1F [Example 83, 2-[7-Bromo-1-Oxo-4-(Trifluoromethoxy)Phthalazin-2-yl]-N-(5-Fluoropyrimidin-4-yl)Acetamide] | > 15 | > 50
15 | CC(C)c1nn(CC(=O)NC2(C)CCOCC2)c(=O)c2ccc(Br)cc12 [Example 44, 2-(6-bromo-1-oxo-4-propan-2-ylphthalazin-2-yl)-N-(4-methyloxan-4-yl)acetamide] | 10 to 15 | 12.3
16 | CC(C)c1nn(CC(=O)Nc2ncncc2F)c(=O)c2ccc(Br)c(F)c12 [Example 9, 2-(6-Bromo-5-fluoro-4-isopropyl-1-oxophthalazin-2(1H)-yl)-N-(5-fluoropyrimidin-4-yl)acetamide] | < 10 | 0.144
17 | CC(C)c1nn(CC(=O)Nc2ccc(C#N)cn2)c(=O)c2ccc(Br)cc12 [Example 119, 2-(6-bromo-1-oxo-4-propan-2-ylphthalazin-2-yl)-N-(5-cyanopyridin-2-yl)acetamide] | < 10 | 0.163
18 | N#Cc1cnc(NC(=O)Cn2nc(C(F)F)c3c(F)c(Br)ccc3c2=O)c(F)c1 [Example 28, 2-[6-bromo-4-(difluoromethyl)-5-fluoro-1-oxophthalazin-2-yl]-N-(5-cyano-3-fluoropyridin-2-yl)acetamide] | < 10 | 0.307
19 | CC(C)c1nn(CC(=O)Nc2ccnn2C)c(=O)c2ccc(Br)cc12 [Example 49, 2-(6-bromo-1-oxo-4-propan-2-ylphthalazin-2-yl)-N-(2-methylpyrazol-3-yl)acetamide] | < 10 | 1.7
20 | CC(C)c1nn(CC(=O)Nc2ncncc2F)c(=O)c2ccc(C(F)(F)F)nc12 [Example 24, N-(5-fluoropyrimidin-4-yl)-2-[5-oxo-8-propan-2-yl-2-(trifluoromethyl)pyrido[2,3-d]pyridazin-6-yl]acetamide] | < 10 | 0.138
21 | CC(C)c1nn(CC(=O)Nc2ncncc2F)c(=O)c2ccc(OC(F)F)cc12 [Example 16, 2-[6-(difluoromethoxy)-1-oxo-4-propan-2-ylphthalazin-2-yl]-N-(5-fluoropyrimidin-4-yl)acetamide] | < 10 | 0.787
22 | O=C(Cn1nc(OC(F)C2CC2)c2cc(Br)ccc2c1=O)Nc1ncc(F)cn1 (centres unmarked) [Example 168, 2-[6-bromo-4-[cyclopropyl(fluoro)methoxy]-1-oxophthalazin-2-yl]-N-(5-fluoropyrimidin-2-yl)acetamide] | > 15 | 17.1
23 | CO[C@H]1C[C@H](NC(=O)Cn2nc(C(C)C)c3cc(Br)ccc3c2=O)C1 [Example 78, 2-(6-bromo-1-oxo-4-propan-2-ylphthalazin-2-yl)-N-(3-trans-methoxycyclobutyl)acet amide] | < 10 | 1.51
24 | CC(C)c1nn(CC(=O)NC2CNCC(F)(F)C2)c(=O)c2ccc(Br)cc12 (centres unmarked) [Example 11, 2-(6-bromo-4-isopropyl-1-oxophthalazin-2(lH)-yl)-N-(5,5-difluoropiperidin-3-yl)acetamide HCl salt] | < 10 | 3.15
25 | CCN1CCC[C@@H](NC(=O)Cn2nc(C(C)C)c3cc(Cl)ccc3c2=O)C1 [Example 79, 2-(6-chloro-1-oxo-4-propan-2-ylphthalazin-2-yl)-N-[(3R)-1-ethylpiperidin-3-yl]acetamide] | < 10 | 0.61
26 | O=C(Cn1nc(CF)c2ccc(Br)cc2c1=O)Nc1ncc(F)cn1 [Example 143, 2-[7-bromo-4-(fluoromethyl)-1-oxophthalazin-2-yl]-N-(5-fluoropyrimidin-2-yl)acetamide] | < 10 | 2.47
27 | CC(c1nn(CC(=O)Nc2ncncc2F)c(=O)c2ccc(Br)cc12)C(F)(F)F (centres unmarked) [Example 17, 2-[6-bromo-1-oxo-4-(1,1,1-trifluoropropan-2-yl)phthalazin-2-yl]-N-(5-fluoropyrimidin-4-yl)acetamide] | < 10 | 0.876
28 | CCN1CCC[C@@H](NC(=O)Cn2nc(C(F)(F)F)c3ccc(Br)cc3c2=O)C1 [Example 90, 2-[7-bromo-1-oxo-4-(trifluoromethyl)phthalazin-2-yl]-N-[(3R)-1-ethylpiperidin-3-yl]acetamide] | < 10 | 6.74
